Results on 15 molecules are retold here after patent EP0293220B1, “Pharmacologically active 2-and 3-substituted (1', 5'-diaryl-3-pyrazolyl)-N-Hydroxypropanamides and method for synthesizing” (ORTHO PHARMACEUTICAL CORPORATION, priority 1987, dated 1988).

The subject of one assay is Polyarthritis. The assay can be described thus: Polyarthritis induced by Mycobacterium butyricum in rats: inhibition of paw volume increase after oral dosing. It is filed as in vivo, Lewis strain laboratory rats. Conditions: percent inhibition of paw volume increase. As to the method: Polyarthritis was induced in Lewis strain laboratory rats (weight = about 200 grams) by injection of a suspension of Mycobacterium butyricum in mineral oil into the subplantar tissue of the mammal's hind paws. On day 10 after the injection, the rats were assigned to groups, and paw volumes and body weights were recorded. Paw volumes of the contralateral, uninjected hind paw were determined by mercury plethylsmography. Per oral (p.o.) dosing began and continued for five consecutive days thereafter. On day 14 after the initial injection, approximately four hours after the final dose was administered, paw volumes and body weights were recorded and quantitated.
Anti-inflammatory activity of the N-hydroxypropanamide pyrazole compounds is expressed as the percent inhibition of paw volume increase.

The target of a further assay is T1, lipoxygenase (Rattus norvegicus, UniProt P12527).
T1 construct: endogenous in cells; host or cells: pleural exudate cells of carrageenan-treated Sprague-Dawley rats
T1 sequence (P12527 1-673): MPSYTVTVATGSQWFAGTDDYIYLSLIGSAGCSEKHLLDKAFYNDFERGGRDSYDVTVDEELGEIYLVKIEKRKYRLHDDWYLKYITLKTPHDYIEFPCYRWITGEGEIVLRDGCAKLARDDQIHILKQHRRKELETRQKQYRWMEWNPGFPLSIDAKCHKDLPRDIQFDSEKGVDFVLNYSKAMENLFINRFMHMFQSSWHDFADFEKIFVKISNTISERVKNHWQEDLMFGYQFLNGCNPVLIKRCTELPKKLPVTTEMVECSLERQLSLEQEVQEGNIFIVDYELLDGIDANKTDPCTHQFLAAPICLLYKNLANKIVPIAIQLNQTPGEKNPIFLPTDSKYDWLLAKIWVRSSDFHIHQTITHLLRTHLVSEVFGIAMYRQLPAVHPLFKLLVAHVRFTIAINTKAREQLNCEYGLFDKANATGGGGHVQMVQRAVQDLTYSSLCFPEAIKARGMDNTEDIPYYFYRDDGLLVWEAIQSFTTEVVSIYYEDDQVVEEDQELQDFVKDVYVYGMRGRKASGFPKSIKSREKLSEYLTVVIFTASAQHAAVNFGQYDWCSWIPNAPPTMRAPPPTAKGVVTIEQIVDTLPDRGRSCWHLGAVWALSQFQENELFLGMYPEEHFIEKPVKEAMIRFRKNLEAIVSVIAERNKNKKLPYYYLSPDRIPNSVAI
As to the kind of experiment: Ex vivo arachidonic acid metabolism of rat pleural exudate cells after oral dosing, lipoxygenase products (5-HETE, leukotriene B₄). The assay is classed as in vivo, Sprague-Dawley rats. The conditions noted are these: for inhibition at 30 mg/kg: 30 mpk; for ED50: oral dose, ex vivo rat pleural exudate cells, read-out: IC₅₀, p.o. Lipoxygenase. As to the method: This assay determines the ability of orally administered compounds to inhibit arachidonic acid metabolism with rat pleural exudate cells, via the lipoxygenase and/or cyclooxygenase enzymes. Sprague-Dawley rats (250 - 275 gm) are fasted overnight. The next morning, an acute inflammatory response is induced by the intra-thoracic injection of 1 ml of 0.25% carrageenan. Three hours later the rats are dosed orally with the test compounds at a screening dose of 16.5-30 mpk. Thirty minutes to one hour later the rats are sacrificed and pleural fluid harvested. The exudate fluids are diluted 1:5 using Hanks BSS and stimulated using 10 µg/ml calcium ionophore A-23187. The reaction is stopped after 15 minutes by the addition of 25 µl of 1N HCl, and the samples are centrifuged at 1000 g to sediment the cells. The supernate is extracted and applied to a C-18 HPLC column. The arachidonic acid metabolites 12-HHT (cyclooxygenase), 5-HETE, and leukotriene B₄ (lipoxygenase) are eluted using an acetonitrile methanol gradient and detected by UV absorption at 235 and 270 nm. The percent inhibition of the arachidonic acid metabolites is indicative of the anti-inflammatory activity of the tested compound and the results of this method for several compounds of the invention are listed in Table 13. The values shown are the percent inhibition at the dose indicated except for the those cases in which the IC₅₀ value is given.

Where [1] appears, read: rat, po, exudate cells stimulated with 10 µg/ml calcium ionophore A-23187, read-out: %INH., p.o. Lipoxygenase (mpk).

Each structure is given as a SMILES string.

`COc1ccc(-n2nc(C(O)c3ccc(C)cc3)cc2-c2ccc(C)cc2)cc1` (stereo not drawn) [Compound 92]: in the assay with Polyarthritis (10 mpk), the “%INH., p.o. (mpk)” value stood at 27% @ 10. Turning to `COc1ccc(-n2nc(C(O)c3ccc4ccccc4c3)cc2-c2ccc(C)cc2)cc1` (stereo not drawn) [Compound 94], the “%INH., p.o. (mpk)” value in the assay on Polyarthritis (10 mpk) is reported as 29% @ 10. In the case of `COc1ccc(-c2cc(C(O)c3ccccc3)nn2-c2ccc(OC)cc2)cc1` (stereo not drawn) [Compound 105, [1,5-Bis(4-methoxyphenyl)-3-pyrazolyl]-1-phenylmethanol], the “%INH., p.o. (mpk)” value with Polyarthritis (15 mpk) was determined as 49% @ 15. `COc1ccc(-n2nc(C(=O)c3ccc(Cl)cc3)cc2-c2ccc(C)cc2)cc1` [Compound 108]: the “%INH., p.o. (mpk)” value with Polyarthritis (10 mpk) is 25% @ 10.

`COc1ccc(-n2nc(C(=O)c3ccc(C)cc3)cc2-c2ccc(C)cc2)cc1` [Compound 109, 1-(4-Methoxyphenyl)-3-(4-methylbenzoyl)-5-(4-methylphenyl)pyrazole]: the inhibition at 30 mg/kg on lipoxygenase (setting [1]) came out at 62%. `CCOC(=O)/C=C(/c1ccc(C)cc1)c1cc(-c2ccc(C)cc2)n(-c2ccc(OC)cc2)n1` [Compound 125, (Z)-Ethyl 3-[1(4-methoxyphenyl)-5-(4-methylphenyl)-3-pyrazolyl]-3-(4-methylphenyl)propenoate]: the ED50 at lipoxygenase stood at 9 mg/kg. In the case of `CCOC(=O)/C=C(/c1ccc(-c2ccccc2)cc1)c1cc(-c2ccc(C)cc2)n(-c2ccc(OC)cc2)n1` [Compound 132], at lipoxygenase (rat, po, 16.5 mpk, exudate cells stimulated with 10 µg/ml calcium ionophore A-23187, read-out: %INH., p.o. Lipoxygenase (mpk)), the inhibition at 16.5 mg/kg stood at 34%. Consider `CCOC(=O)CC(c1cc(-c2ccc(C)cc2)n(-c2ccc(OC)cc2)n1)c1cccc2ccccc12` (stereo not drawn) [Compound 150], for which the inhibition at 30 mg/kg on lipoxygenase (setting [1]) is 42%.

Take `COc1ccc(-n2nc(/C(=C/C(=O)O)c3ccccc3)cc2-c2ccc(C)cc2)cc1` [Compound 155, (E)-3-[1-(4-Methoxyphenyl)-5-(4-methylphenyl)-3-pyrazolyl]-3-phenyl-2-propenoic acid]: in the assay on Polyarthritis (10 mpk), the “%INH., p.o. (mpk)” value is listed as 62% @ 10.

As to `COc1ccc(-n2nc(/C(=C/C(=O)O)c3ccc(Cl)cc3)cc2-c2ccc(C)cc2)cc1` [Compound 157, (E)-3-(4-Chlorophenyl)-3-[1-(4-methoxyphenyl)-5-(4-methylphenyl)-3-pyrazolyl]propenoic acid], in the assay on Polyarthritis (10 mpk), the “%INH., p.o. (mpk)” value amounted to 24% @ 10. As to `COc1ccc(-n2nc(/C(=C\C(=O)O)c3ccc(Cl)cc3)cc2-c2ccc(C)cc2)cc1` [Compound 158, (Z)-3-(4-Chlorophenyl)-3-[1-(4-methoxyphenyl)-5-(4-methylphenyl)-3-pyrazolyl]propenoic acid], at lipoxygenase (rat, po, 17.5 mpk, exudate cells stimulated with 10 µg/ml calcium ionophore A-23187, read-out: %INH., p.o. Lipoxygenase (mpk)), the inhibition at 17.5 mg/kg was 53%.

For `COc1ccc(-n2nc(/C(=C/C(=O)N(C)O)c3ccc(F)cc3)cc2-c2ccc(C)cc2)cc1` [Compound 163, (E)-3-(4-Fluorophenyl)-N-hydroxy-3-[1-(4-methoxyphenyl)-5-(4-methylphenyl)-3-pyrazolyl]-N-methylpropenamide], the ED50 on lipoxygenase amounted to 10 mg/kg. Regarding `COc1ccc(-n2nc(/C(=C/C(=O)N(C)O)c3ccc(Cl)cc3)cc2-c2ccc(C)cc2)cc1` [Compound 164], the “%INH., p.o. (mpk)” value in the assay on Polyarthritis (10 mpk) is on record as 22% @ 10. Take `COc1ccc(-n2nc(/C(=C\C(=O)N(C)O)c3ccc(Cl)cc3)cc2-c2ccc(C)cc2)cc1` [Compound 165]: the inhibition at 30 mg/kg on lipoxygenase (setting [1]) was 12%.

In the case of `COc1ccc(-n2nc(/C(=C/C(=O)N(C)O)c3ccc(-c4ccccc4)cc3)cc2-c2ccc(C)cc2)cc1` [Compound 168], the inhibition at 30 mg/kg at lipoxygenase (setting [1]) worked out at 3%.
